Measurements as given in patent publication US10472635B2, “Methods of treating brain edema” (priority 2015, dated 2019).

Tests used:
SLC4-A3, A8, A10 = settings: cited from earlier work
[1] = system: neuronal [Na^+]i in brain slices; test: Neuronal [Na+]i by CoroNa Green fluorescence / two-photon FLIM; format: cell-based, rat; settings: CoroNa signal; TTX 1 μM; DIDS 250 μM
rat hippocampal slices = test: LDH release cell death assay in hippocampal slices; format: cell-based
Maxi-Anion Channel = settings: cited from earlier work
[2] = system: voltage-dependent Cl^− current in layer 4 cortical neurons; test: Whole-cell voltage clamp of depolarization-activated Cl- current; format: cell-based, rat; settings: depolarization to −20 mV or greater; cocktail of channel blockers; GlyH-101 by dialysis
Experimental: Electrophysiology: Whole-cell recordings were performed in the presence of antagonists of GABAA (10 μM picrotoxin), AMPA/kainite (10 μM 6-cyano-7-nitoquinoxaline-2,3-dione—CNQX), and NMDA (2R-amino-5-phosphonovaleric acid—APV) receptors. 60 μM cadmium, 50 μM nickel and 100 μM 4AP (4-aminopyridine) were used to block voltage-gated calcium channels and A-type potassium channels. Whole-cell voltage-clamp recordings from cortical neurons were carried out at room temperature while the recording chamber was perfused with ACSF at 1-1.5 ml min-1. Recordings were made using a MultiClamp 700B amplifier controlled by Clampex 10.2 via a Digidata 1440A data acquisition system with 3-5M ? glass electrodes. The pipette solution containing (in m ? ): 108 CsCl, 8 TEA-Cl, 8 NaGluc, 1 CsEGTA, 4 K-ATP, 0.3 Na-GTP, 10 Hepes, 2MgCl2 (pH 7.2 with CsOH, 286 mosmol 1-1). Normal ACSF contained (in mM): 126 NaCl, 26 NaHCO3, 10 glucose, 2 MgCl2, 1.25 NaH2PO4, 2.5 KCl, 2.0 CaCl2 (pH 7.25, 310 mosmol 1-1). NaCl was replaced with 126 mM Na-isethionate in the low-chloride ACSF. Recordings where the series resistance varied more than 10% were rejected. Data were analyzed with Clampfit 10.0.
The opening of Na^+ permeable channels causes both [Na^+]i accumulation and neuronal depolarization. […] However progressive accumulation of extracellular K^+ could lead to further depolarization of the membrane. […]

SLC26A11 = biological target: T1, SLC26A11 (Homo sapiens, UniProt Q86WA9); settings: cited from earlier work
T1 sequence (Q86WA9 1-606): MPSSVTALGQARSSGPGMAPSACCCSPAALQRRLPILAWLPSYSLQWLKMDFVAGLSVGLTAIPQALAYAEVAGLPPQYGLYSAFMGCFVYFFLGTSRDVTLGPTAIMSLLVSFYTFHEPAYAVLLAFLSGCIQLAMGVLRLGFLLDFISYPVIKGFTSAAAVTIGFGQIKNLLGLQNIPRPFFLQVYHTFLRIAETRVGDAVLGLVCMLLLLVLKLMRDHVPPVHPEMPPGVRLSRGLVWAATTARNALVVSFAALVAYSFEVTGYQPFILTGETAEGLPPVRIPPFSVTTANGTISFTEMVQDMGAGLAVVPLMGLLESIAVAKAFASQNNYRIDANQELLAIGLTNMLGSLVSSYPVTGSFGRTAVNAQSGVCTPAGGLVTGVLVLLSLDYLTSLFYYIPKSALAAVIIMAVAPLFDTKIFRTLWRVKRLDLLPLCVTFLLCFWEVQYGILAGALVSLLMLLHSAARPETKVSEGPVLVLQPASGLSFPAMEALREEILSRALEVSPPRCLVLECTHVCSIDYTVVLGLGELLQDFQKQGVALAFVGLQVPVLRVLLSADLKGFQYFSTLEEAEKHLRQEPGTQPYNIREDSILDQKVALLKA

[3] = system: cortical neurons in brain slices; test: Neuronal swelling imaging assay in brain slices (cross sectional area of CoroNa-stained soma, two-photon); format: cell-based, rat
VRAC = settings: cited from earlier work

O=S(=O)(O)c1cc(N=C=S)ccc1C=Cc1ccc(N=C=S)cc1S(=O)(=O)O [DIDS]
concentration (antagonist sensitivity of channel/transporter) (SLC4-A3, A8, A10): 0.1 to 0.5 mM
effect on veratridine-induced [Na+]i increase [1]: not affected
effect on veratridine-induced cell death (LDH release) (rat hippocampal slices; 50 μM veratridine): prevented cell death
effect on NMDA-induced cell death (LDH release), Ca2+-independent (rat hippocampal slices; NMDA in Ca2+ free extracellular solution): blocked
effect on NMDA-induced cell death (LDH release), Ca2+-dependent (rat hippocampal slices; NMDA with extracellular Ca2+ present, reduced extracellular Na+): not blocked
concentration (antagonist sensitivity of channel/transporter) (Maxi-Anion Channel): 100 µM
effect on non-inactivating Cl- current elicited by depolarization [2]: blocked
concentration (antagonist sensitivity of channel/transporter) (SLC26A11): 0.5 to 1 mM
effect on veratridine-induced neuronal swelling ([3]; 22-24 °C, antagonist bath applied and in puffing pipette, DIDS 250 μM, NPPB 200 μM, TTX 1 μM): reduced the swelling
effect on veratridine-stimulated neuronal swelling at 37 °C ([3]; 37 °C, Calcein green-AM): block
effect on NMDA-induced neuronal swelling ([3]; DIDS 250 μM, 500 μM, 1 mM, d-APV 100 μM): blocked NMDA-evoked neuronal swelling in a dose-dependent manner
concentration (antagonist sensitivity of channel/transporter) (VRAC): 100 to 400 µM
